Results as given in US20050238777A1, “Condensed palatinose and method for producing the same” (priority 2002, published 2005).

Assays:
[1] = system: glucoamylase/maltase enzyme complex (GM complex); experiment: Stability with respect to intestinal α-glucosidases: glucoamylase/maltase; type: in vitro ADME, pig; settings: 1% solution, pH 7.0, 0.7 U enzyme complex, 37° C., incubation time 120 min
Source text: (§1) The enzyme complexes saccharase/isomaltase and glucoamylase/maltase that are present on the mucosa in the small intestine in vivo serve to break down disaccharides like maltose and sucrose that reach the small intestine and also to break down maltooligosaccharides to monosaccharides to some degree, and as such these components are absorbed into the blood circulation via the intestinal wall. The enzyme complexes saccharase/isomaltase (SI complex) and glucoamylase/maltase (GM complex) are isolated from a pig intestine by the method of H. […] (solution 2 to solution 6), mixed and incubated at 37° C. The reaction is stopped after 2 h by heating to 95° C. for 15 min. The monosaccharides that have formed and the undegraded saccharides in the relative batches are quantitatively determined by HPAEC.

[2] = target: T1, saccharase/isomaltase enzyme complex (SI complex) (Sus scrofa, UniProt P56729); experiment: Stability with respect to intestinal α-glucosidases: saccharase/isomaltase; type: in vitro ADME, pig; settings: 1% solution, pH 7.0, 0.7 U enzyme complex, 37° C., incubation time 120 min
T1 construct: are isolated from a pig intestine by the method of H. Heymann; from tissue; host or cells: pig intestine (mucosa of the small intestine)
T1 sequence (P56729 with tags, fused parts or gaps): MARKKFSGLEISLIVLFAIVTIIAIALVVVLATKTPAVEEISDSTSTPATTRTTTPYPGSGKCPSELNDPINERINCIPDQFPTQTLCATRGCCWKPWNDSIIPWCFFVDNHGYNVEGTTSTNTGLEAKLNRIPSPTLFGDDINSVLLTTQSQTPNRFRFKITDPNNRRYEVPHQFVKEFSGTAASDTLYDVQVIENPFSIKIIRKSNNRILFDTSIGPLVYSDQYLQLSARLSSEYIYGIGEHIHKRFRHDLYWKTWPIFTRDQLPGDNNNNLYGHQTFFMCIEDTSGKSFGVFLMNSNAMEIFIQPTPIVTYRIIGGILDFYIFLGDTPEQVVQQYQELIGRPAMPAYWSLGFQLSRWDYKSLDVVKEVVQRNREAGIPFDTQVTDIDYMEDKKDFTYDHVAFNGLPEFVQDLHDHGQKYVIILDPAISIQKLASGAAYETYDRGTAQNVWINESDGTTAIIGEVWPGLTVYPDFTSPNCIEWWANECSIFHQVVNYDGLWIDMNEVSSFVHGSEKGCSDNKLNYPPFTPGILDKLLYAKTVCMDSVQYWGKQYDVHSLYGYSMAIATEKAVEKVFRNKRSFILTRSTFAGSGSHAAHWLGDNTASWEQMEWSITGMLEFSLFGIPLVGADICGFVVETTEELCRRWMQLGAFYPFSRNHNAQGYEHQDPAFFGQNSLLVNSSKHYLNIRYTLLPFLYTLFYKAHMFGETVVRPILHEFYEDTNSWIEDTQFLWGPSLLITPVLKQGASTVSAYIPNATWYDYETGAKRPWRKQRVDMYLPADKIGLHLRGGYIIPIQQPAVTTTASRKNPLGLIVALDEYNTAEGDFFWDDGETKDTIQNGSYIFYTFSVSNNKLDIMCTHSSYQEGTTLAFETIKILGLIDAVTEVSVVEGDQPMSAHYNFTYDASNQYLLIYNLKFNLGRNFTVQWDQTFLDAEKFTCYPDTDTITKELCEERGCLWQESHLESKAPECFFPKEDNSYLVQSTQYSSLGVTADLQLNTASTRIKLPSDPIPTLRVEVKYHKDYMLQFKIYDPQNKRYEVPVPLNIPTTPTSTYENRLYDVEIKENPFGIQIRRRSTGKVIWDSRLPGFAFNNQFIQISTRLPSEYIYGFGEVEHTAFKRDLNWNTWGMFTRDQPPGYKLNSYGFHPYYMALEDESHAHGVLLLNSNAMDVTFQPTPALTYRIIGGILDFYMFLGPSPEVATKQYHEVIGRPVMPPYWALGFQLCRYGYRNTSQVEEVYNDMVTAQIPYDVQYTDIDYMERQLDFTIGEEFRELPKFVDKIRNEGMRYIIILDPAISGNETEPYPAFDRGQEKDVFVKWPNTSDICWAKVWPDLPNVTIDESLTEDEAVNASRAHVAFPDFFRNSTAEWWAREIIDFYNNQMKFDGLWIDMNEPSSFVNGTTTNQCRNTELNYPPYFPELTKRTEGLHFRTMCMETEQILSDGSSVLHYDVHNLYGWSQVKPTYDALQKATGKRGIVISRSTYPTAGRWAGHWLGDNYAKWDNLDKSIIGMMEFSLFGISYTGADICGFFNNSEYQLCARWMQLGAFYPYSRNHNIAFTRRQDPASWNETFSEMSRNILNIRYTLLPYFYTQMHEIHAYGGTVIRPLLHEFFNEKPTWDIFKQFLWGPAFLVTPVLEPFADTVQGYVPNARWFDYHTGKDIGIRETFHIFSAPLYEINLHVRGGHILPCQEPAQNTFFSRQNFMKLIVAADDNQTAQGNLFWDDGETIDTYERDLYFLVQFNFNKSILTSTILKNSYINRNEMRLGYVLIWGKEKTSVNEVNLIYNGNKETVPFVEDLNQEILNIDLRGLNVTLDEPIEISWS
Source text: as §1

[3] = Stability in stomach: hydrolysis rate at pH 2.0, 37° C.; type: physicochemical; settings: 1% solution, 10 mM hydrochloric acid (pH 2.0)
Procedure: The stability of a substance in the gastric passage can be simulated by determining the hydrolysis rate at pH 2.0. Sucrose and 1-kestose are used as controls. […] Samples are taken from the reaction batch after […], 120 and 180 min and are analyzed by basic anion exchange chromatography, HPAEC.

| Hydrolysis rate (%), incubation with Glucoamylase/Maltase [1] [%] | Hydrolysis rate (%), incubation with Saccharase/Isomaltase [2] [%] | Hydrolysis rate (%) ([3]; incubation time 0 min) | Hydrolysis rate (%) ([3]; incubation time 60 min) | Hydrolysis rate (%) ([3]; incubation time 120 min) | Hydrolysis rate (%) ([3]; incubation time 180 min) | SMILES |
| --- | --- | --- | --- | --- | --- | --- |
| 96 | 95 |  |  |  |  | OC[C@H]1O[C@H](O[C@H]2[C@H](O)[C@@H](O)C(O)O[C@@H]2CO)[C@H](O)[C@@H](O)[C@@H]1O (mixture of isomers) [Maltose] |
|  |  | 0 | 11 | 25 | 36 | OC[C@H]1O[C@@](CO)(OC[C@@]2(O[C@H]3O[C@H](CO)[C@@H](O)[C@H](O)[C@H]3O)O[C@H](CO)[C@@H](O)[C@@H]2O)[C@@H](O)[C@@H]1O [Example 1-Kestose, 1-Kestose] |
|  | 98 | 0 | 2 | 5 | 8 | OC[C@H]1O[C@@](CO)(O[C@H]2O[C@H](CO)[C@@H](O)[C@H](O)[C@H]2O)[C@@H](O)[C@@H]1O [Sucrose] |
